Experimental data taken from PubChem BioAssay (NCI).
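48-hour exposure; five concentrations; linearly interpolated endpoints. TGI denotes the concentration required for complete inhibition of growth.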

What was measured:
Assay in all cases: NCI anticancer screen, dose series, 48 h
SR leukemia = system: SR leukemia
SF-539 CNS = system: SF-539 CNS
KM12 colon = system: KM12 colon
K-562 leukemia = system: K-562 leukemia
HS 578T breast = system: HS 578T breast
T-47D breast = system: T-47D breast
SF-295 CNS = system: SF-295 CNS
NCI/ADR-RES ovarian = system: NCI/ADR-RES ovarian
SW-620 colon = system: SW-620 colon
HCT-15 colon = system: HCT-15 colon
COLO 205 colon = system: COLO 205 colon
ACHN renal = system: ACHN renal
MDA-N = system: MDA-N
UO-31 renal = system: UO-31 renal
MCF7 breast = system: MCF7 breast
OVCAR-4 ovarian = system: OVCAR-4 ovarian
CAKI-1 renal = system: CAKI-1 renal
786-0 renal = system: 786-0 renal
NCI-H460 lung = system: NCI-H460 lung
DU-145 prostate = system: DU-145 prostate
BT-549 breast = system: BT-549 breast
HT29 colon = system: HT29 colon
OVCAR-3 ovarian = system: OVCAR-3 ovarian
A549 NSCLC = system: A549 NSCLC
MALME-3M melanoma = system: MALME-3M melanoma
SK-MEL-2 melanoma = system: SK-MEL-2 melanoma
SNB-19 CNS = system: SNB-19 CNS
HCT-116 colon = system: HCT-116 colon
UACC-257 melanoma = system: UACC-257 melanoma
HL-60(TB) leukemia = system: HL-60(TB) leukemia
NCI-H23 lung = system: NCI-H23 lung
PC-3 prostate = system: PC-3 prostate
IGROV1 ovarian = system: IGROV1 ovarian
TK-10 renal = system: TK-10 renal
MDA-MB-231 breast = system: MDA-MB-231 breast
RPMI-8226 leukemia = system: RPMI-8226 leukemia
SK-MEL-28 melanoma = system: SK-MEL-28 melanoma
NCI-H522 lung = system: NCI-H522 lung
U251 CNS = system: U251 CNS
SK-OV-3 ovarian = system: SK-OV-3 ovarian
SNB-75 CNS = system: SNB-75 CNS
UACC-62 melanoma = system: UACC-62 melanoma
HOP-62 NSCLC = system: HOP-62 NSCLC
SF-268 CNS = system: SF-268 CNS
MDA-MB-435 = system: MDA-MB-435
SK-MEL-5 melanoma = system: SK-MEL-5 melanoma
M14 melanoma = system: M14 melanoma
LOX IMVI melanoma = system: LOX IMVI melanoma
OVCAR-5 ovarian = system: OVCAR-5 ovarian
MOLT-4 leukemia = system: MOLT-4 leukemia
EKVX NSCLC = system: EKVX NSCLC
HCC-2998 colon = system: HCC-2998 colon
OVCAR-8 ovarian = system: OVCAR-8 ovarian
SN12C renal = system: SN12C renal
HOP-92 NSCLC = system: HOP-92 NSCLC
CCRF-CEM leukemia = system: CCRF-CEM leukemia
NCI-H226 lung = system: NCI-H226 lung
RXF 393 renal = system: RXF 393 renal

## COc1cc(/C=C/C(=O)OCCc2ccccc2)ccc1O
SR leukemia
  TGI: 83.5 µM
SF-539 CNS
  TGI: 36.7 µM
KM12 colon
  TGI: 30.3 µM
K-562 leukemia
  TGI: 85.4 µM
HS 578T breast
  TGI: 50 µM
T-47D breast
  TGI: 33.2 µM
SF-295 CNS
  TGI: 35.3 µM
NCI/ADR-RES ovarian
  TGI: 60.6 µM
SW-620 colon
  TGI: 41.2 µM
HCT-15 colon
  TGI: 44.6 µM
COLO 205 colon
  TGI: 34.8 µM
ACHN renal
  TGI: 33.9 µM
MDA-N
  TGI: 34.4 µM
UO-31 renal
  TGI: 27.3 µM
MCF7 breast
  TGI: 44.8 µM
OVCAR-4 ovarian
  TGI: 26.1 µM
CAKI-1 renal
  TGI: 29.7 µM
786-0 renal
  TGI: 30.4 µM
NCI-H460 lung
  TGI: 37.1 µM
DU-145 prostate
  TGI: 30.4 µM
BT-549 breast
  TGI: 28.1 µM
HT29 colon
  TGI: 44.3 µM
OVCAR-3 ovarian
  TGI: 36.9 µM
A549 NSCLC
  TGI: 38.9 µM
MALME-3M melanoma
  TGI: 31.7 µM
SK-MEL-2 melanoma
  TGI: 42.7 µM
SNB-19 CNS
  TGI: 33.9 µM
HCT-116 colon
  TGI: 31.6 µM
UACC-257 melanoma
  TGI: 32.4 µM
HL-60(TB) leukemia
  TGI: 40.2 µM
NCI-H23 lung
  TGI: 36.5 µM
PC-3 prostate
  TGI: 28 µM
IGROV1 ovarian
  TGI: 28 µM
TK-10 renal
  TGI: 28.3 µM
MDA-MB-231 breast
  TGI: 30.6 µM
RPMI-8226 leukemia
  TGI: 65.9 µM
SK-MEL-28 melanoma
  TGI: 26.9 µM
NCI-H522 lung
  TGI: 22.1 µM
U251 CNS
  TGI: 29.5 µM
SK-OV-3 ovarian
  TGI: 29.7 µM
SNB-75 CNS
  TGI: 30.2 µM
UACC-62 melanoma
  TGI: 26 µM
HOP-62 NSCLC
  TGI: 33.4 µM
SF-268 CNS
  TGI: 47.4 µM
MDA-MB-435
  TGI: 27.3 µM
SK-MEL-5 melanoma
  TGI: 33.7 µM
M14 melanoma
  TGI: 29 µM
LOX IMVI melanoma
  TGI: 36.1 µM
OVCAR-5 ovarian
  TGI: 32.8 µM
MOLT-4 leukemia
  TGI: 37.9 µM
EKVX NSCLC
  TGI: 33.5 µM
HCC-2998 colon
  TGI: 41.3 µM
OVCAR-8 ovarian
  TGI: 79.3 µM
SN12C renal
  TGI: 36.7 µM

## N#Cc1nc(COCc2ccccc2)oc1N
SR leukemia
  TGI: > 100 µM
SF-539 CNS
  TGI: > 100 µM
KM12 colon
  TGI: > 100 µM
HOP-92 NSCLC
  TGI: > 100 µM
K-562 leukemia
  TGI: > 100 µM
HS 578T breast
  TGI: > 100 µM
T-47D breast
  TGI: > 100 µM
SF-295 CNS
  TGI: > 100 µM
NCI/ADR-RES ovarian
  TGI: > 100 µM
SW-620 colon
  TGI: > 100 µM
HCT-15 colon
  TGI: > 100 µM
COLO 205 colon
  TGI: > 100 µM
ACHN renal
  TGI: > 100 µM
MDA-N
  TGI: > 100 µM
UO-31 renal
  TGI: > 100 µM
MCF7 breast
  TGI: > 100 µM
OVCAR-4 ovarian
  TGI: > 100 µM
CAKI-1 renal
  TGI: > 100 µM
786-0 renal
  TGI: > 100 µM
DU-145 prostate
  TGI: > 100 µM
CCRF-CEM leukemia
  TGI: > 100 µM
BT-549 breast
  TGI: > 100 µM
HT29 colon
  TGI: > 100 µM
OVCAR-3 ovarian
  TGI: > 100 µM
A549 NSCLC
  TGI: > 100 µM
MALME-3M melanoma
  TGI: > 100 µM
SK-MEL-2 melanoma
  TGI: > 100 µM
SNB-19 CNS
  TGI: > 100 µM
HCT-116 colon
  TGI: > 100 µM
UACC-257 melanoma
  TGI: > 100 µM
NCI-H23 lung
  TGI: > 100 µM
PC-3 prostate
  TGI: > 100 µM
IGROV1 ovarian
  TGI: > 100 µM
TK-10 renal
  TGI: > 100 µM
MDA-MB-231 breast
  TGI: > 100 µM
RPMI-8226 leukemia
  TGI: > 100 µM
SK-MEL-28 melanoma
  TGI: > 100 µM
NCI-H522 lung
  TGI: > 100 µM
U251 CNS
  TGI: > 100 µM
SK-OV-3 ovarian
  TGI: > 100 µM
NCI-H226 lung
  TGI: > 100 µM
SNB-75 CNS
  TGI: > 100 µM
UACC-62 melanoma
  TGI: > 100 µM
HOP-62 NSCLC
  TGI: > 100 µM
SF-268 CNS
  TGI: > 100 µM
MDA-MB-435
  TGI: > 100 µM
M14 melanoma
  TGI: > 100 µM
LOX IMVI melanoma
  TGI: > 100 µM
OVCAR-5 ovarian
  TGI: > 100 µM
RXF 393 renal
  TGI: > 100 µM
MOLT-4 leukemia
  TGI: > 100 µM
EKVX NSCLC
  TGI: > 100 µM
HCC-2998 colon
  TGI: > 100 µM
OVCAR-8 ovarian
  TGI: > 100 µM
SN12C renal
  TGI: > 100 µM
